Data published in patent US10308689B2, “Dengue virus (DV) polypeptide sequences, T cell epitopes and methods and uses thereof” (LA JOLLA INSTITUTE FOR ALLERGY AND IMMUNOLOGY, priority 2010, dated 2019).
Ends that are not written are not given here.

Test system: PBMC of healthy adult blood donors from Colombo, Sri Lanka
Experiment: Ex vivo IFNγ ELISPOT, HLA-matched PBMC of Sri Lankan blood donors
Type: cell-based, human
Design: Total Response per epitope: unit not given here
Settings: for # donors responded: number of donors responding to the epitope; for T cell response [SFC]: ex vivo IFNγ SFC/10^6 PBMC; for # of responders: responding donors, HLA allele(s)
[1] = IFNγ ELISPOT response summed over responding donors, per epitope
[2] = HLA-matched PBMC, proteome-wide screen
[3] = restricting HLA allele and serotype as given
[4] = total over responding donors, restricting HLA allele and serotype as given
[5] = HLA allele, supertype and serotype
[6] = summed IFNγ ELISPOT response per epitope, HLA allele and serotype as given

| Compound | Total Response per epitope [1] | # donors responded [2] | # donors responded [3] | Total Response per epitope [4] | other results |
| --- | --- | --- | --- | --- | --- |
| CC[C@H](C)[C@H](NC(=O)[C@H](CCC(=O)O)NC(=O)[C@H](Cc1ccccc1)NC(=O)[C@@H]1CCCN1C(=O)[C@@H](NC(=O)[C@H](CCCCN)NC(=O)[C@H](CS)NC(=O)[C@@H]1CCCN1C(=O)[C@@H](N)CO)[C@@H](C)CC)C(=O)N[C@@H](CCSC)C(=O)O | 1156.0 | 5 | – | – | – |
| CSCC[C@H](N)C(=O)N1CCC[C@H]1C(=O)N[C@H](C(=O)N[C@H](C(=O)N[C@@H](Cc1c[nH]cn1)C(=O)N[C@@H](CO)C(=O)N[C@@H](CO)C(=O)N[C@@H](C)C(=O)N[C@@H](C)C(=O)N[C@@H](CCC(N)=O)C(=O)O)[C@@H](C)O)C(C)C | 183.3 | 2 | – | – | – |
| CC(C)C[C@H](N)C(=O)N1CCC[C@H]1C(=O)N[C@@H](CCC(=O)O)C(=O)N[C@@H](CCC(=O)O)C(=O)N[C@@H](CCC(N)=O)C(=O)N[C@@H](CC(=O)O)C(=O)N[C@@H](CCC(N)=O)C(=O)N[C@@H](CC(N)=O)C(=O)N[C@@H](Cc1ccc(O)cc1)C(=O)O | 1166.7 | 5 | – | – | – |
| CC[C@H](C)[C@H](N)C(=O)N[C@H](C(=O)N[C@@H](CC(C)C)C(=O)N[C@@H](CCC(=O)O)C(=O)N[C@@H](Cc1ccccc1)C(=O)N[C@@H](Cc1ccccc1)C(=O)N[C@@H](CC(C)C)C(=O)N[C@@H](CCSC)C(=O)N[C@H](C(=O)O)C(C)C)[C@@H](C)CC | – | – | 1 | 143.3 | – |
| CC(C)C[C@H](NC(=O)[C@H](CO)NC(=O)[C@H](CC(N)=O)NC(=O)[C@H](CCC(=O)O)NC(=O)[C@H](CCCNC(=N)N)NC(=O)[C@H](CO)NC(=O)[C@@H](N)Cc1ccccc1)C(=O)N[C@@H](CO)C(=O)NCC(=O)N[C@H](C(=O)O)C(C)C | – | – | 1 | 101.7 | – |
| CC(C)C[C@H](NC(=O)[C@H](CC(C)C)NC(=O)[C@@H](NC(=O)[C@H](C)NC(=O)[C@H](C)NC(=O)[C@@H](NC(=O)[C@H](CC(C)C)NC(=O)[C@@H](N)[C@@H](C)O)[C@@H](C)O)C(C)C)C(=O)N[C@@H](CC(C)C)C(=O)N[C@H](C(=O)O)C(C)C | 66.7 | 1 | – | – | – |
| TLMAAILAY | – | – | 1 | 43.3 | – |
| SEMAEALKGM | 30.0 | 1 | – | – | – |
| CC(C)C[C@H](NC(=O)[C@H](CCCNC(=N)N)NC(=O)[C@@H]1CCCN1C(=O)[C@@H](N)CC(N)=O)C(=O)N[C@@H](CS)C(=O)N[C@H](C(=O)N[C@@H](CCCNC(=N)N)C(=O)N[C@@H](CCC(=O)O)C(=O)N[C@@H](CCC(=O)O)C(=O)N[C@@H](Cc1ccccc1)C(=O)O)[C@@H](C)O | – | – | 1 | 365.0 | T cell response [SFC] (per epitope): 365 SFC; # of responders: 1 |
| CC[C@H](C)[C@H](NC(=O)[C@H](C)NC(=O)CNC(=O)[C@@H](N)Cc1ccccc1)C(=O)N[C@@H](Cc1ccc(O)cc1)C(=O)NCC(=O)N[C@@H](C)C(=O)N[C@@H](C)C(=O)N[C@@H](Cc1ccccc1)C(=O)O | – | – | 3 | 798.3 | – |
| CSCC[C@H](NC(=O)[C@H](C)NC(=O)CNC(=O)[C@H](CCC(=O)O)NC(=O)[C@@H](N)CCC(N)=O)C(=O)N[C@@H](Cc1c[nH]cn1)C(=O)N[C@@H](CO)C(=O)N[C@@H](C)C(=O)N[C@@H](CC(C)C)C(=O)O [QEGAMHSAL] | 48.3 | 1 | – | – | – |
| CSCC[C@H](NC(=O)[C@H](Cc1ccc(O)cc1)NC(=O)[C@@H]1CCCN1C(=O)[C@H](CC(N)=O)NC(=O)[C@H](CC(C)C)NC(=O)[C@@H](N)C(C)C)C(=O)N1CCC[C@H]1C(=O)N[C@@H](CO)C(=O)N[C@H](C(=O)O)C(C)C | 41.7 | 1 | – | – | – |
| HPGAGKTKRY | – | – | 10 | 3046.7 | T cell response [SFC] (per epitope): 3047 SFC; # of responders: 10 |
| KSGAIKVLK | – | – | 1 | 48.3 | – |
| IGIGVLLTW | – | – | 1 | 378.3 | – |
| CC[C@H](C)[C@H](NC(=O)[C@@H]1CCCN1C(=O)[C@@H](N)CC(=O)O)C(=O)N1CCC[C@H]1C(=O)N[C@@H](Cc1ccc(O)cc1)C(=O)N[C@@H](CC(=O)O)C(=O)N1CCC[C@H]1C(=O)N[C@@H](CCCCN)C(=O)N[C@@H](Cc1ccccc1)C(=O)O | – | – | 1 | 38.3 | – |
| CC[C@H](C)[C@H](NC(=O)[C@H](C)NC(=O)[C@H](C)NC(=O)[C@H](CCSC)NC(=O)[C@@H](NC(=O)[C@@H](NC(=O)[C@@H](N)Cc1ccccc1)[C@@H](C)O)[C@@H](C)CC)C(=O)N[C@@H](CC(C)C)C(=O)N[C@@H](C)C(=O)N[C@@H](Cc1ccc(O)cc1)C(=O)O | – | – | 2 | 675.0 | – |
| CC(C)[C@H](NC(=O)[C@H](CCCNC(=N)N)NC(=O)[C@H](CCC(N)=O)NC(=O)[C@H](CCC(N)=O)NC(=O)CNC(=O)[C@H](Cc1ccccc1)NC(=O)[C@@H]1CCCN1C(=O)[C@@H](N)[C@@H](C)O)C(=O)N[C@@H](Cc1ccccc1)C(=O)O | – | – | – | – | # donors responded [5]: 3; Total Response per epitope [6]: 438.3 |
| RPGYHTQTA | 501.7 | 2 | – | – | – |
| CC[C@H](C)[C@H](NC(=O)[C@H](Cc1ccc(O)cc1)NC(=O)CNC(=O)[C@H](CCCNC(=N)N)NC(=O)[C@H](C)NC(=O)[C@H](C)NC(=O)[C@@H](NC(=O)[C@H](CO)NC(=O)[C@H](C)NC(=O)[C@@H]1CCCN1)[C@@H](C)CC)C(=O)O | 611.7 | 2 | – | – | – |
| CC[C@H](C)[C@H](NC(=O)[C@H](CC(C)C)NC(=O)[C@H](C)NC(=O)[C@H](CC(C)C)NC(=O)[C@H](CC(C)C)NC(=O)[C@@H](N)CCSC)C(=O)N[C@@H](C)C(=O)N[C@H](C(=O)N[C@@H](CC(C)C)C(=O)O)C(C)C | 81.7 | 1 | – | – | – |
| CC[C@H](C)[C@H](NC(=O)[C@@H]1CCCN1C(=O)[C@H](C)NC(=O)[C@H](CC(N)=O)NC(=O)[C@H](CO)NC(=O)[C@H](CCC(N)=O)NC(=O)[C@@H]1CCCN1C(=O)[C@@H](N)Cc1ccccc1)C(=O)N[C@@H](CCSC)C(=O)N[C@@H](CC(=O)O)C(=O)O | – | – | 4 | 716.7 | – |
| CC[C@H](C)[C@H](NC(=O)[C@@H](NC(=O)[C@H](CC(=O)O)NC(=O)[C@H](CCSC)NC(=O)[C@@H](NC(=O)[C@@H](NC(=O)CNC(=O)[C@H](CCCNC(=N)N)NC(=O)[C@@H]1CCCN1C(=O)[C@@H](N)[C@@H](C)O)[C@@H](C)O)C(C)C)[C@@H](C)CC)C(=O)O | – | – | – | – | # donors responded [5]: 1; Total Response per epitope [6]: 331.7 |
| REIPERSWNT | 1278.3 | 2 | – | – | – |
| LMMILPAAL | 46.7 | 1 | – | – | – |
